# Earlier results in patent US20030064909A1, “Laundry detergent and/or fabric care compositions comprising a transferase” (The Procter & Gamble Company, priority 1998, published 2003).
row,Compound,solubility in water
1,OCCOc1ccccc1 [2-phenoxyethanol],about 2.67%
2,OCCc1ccccc1 [2-phenylethanol],about 2%
3,"O=[N+]([O-])C1(Br)COCOC1 [Bronidox L, 5-bromo-5-nitro-1,3-dioxane]",about 0.46%
4,"ClC=CC[N+]12CN3CN(CN(C3)C1)C2.[Cl-] [Dowicil 200, 1-(3-Chlorallyl) -3,5,7-triaza-1-azoniaadamantane chloride]",freely soluble in water
5,OCc1ccccc1 [benzyl alcohol],about 4%
6,"[H]/N=C(\N/C(=N/[H])NCCCCCCNC(=N)NC(=N)Nc1ccc(Cl)cc1)Nc1ccc(Cl)cc1 [chlorhexidine diacetate, 1,1′-hexamethylene bis(5-(p-chlorophenyl)biguanide), reference compound]",about 1.8%
7,[Na+].[O-][n+]1ccccc1[S-] [sodium pyrithione],about 50%

# Results, then the compound that gave them:
row,solubility in water,Compound
1,about 25%,"O=[N+]([O-])C(Br)(CO)CO [Bronopol, 2-bromo-2-nitropropane-1,3-diol]"
2,more than 50%,"CC1(C)C(=O)N(CO)C(=O)N1CO [DMDM hydantoin, 1,3-bis(hydroxymethyl)-5,5-dimethyl-2,4-imidazolidinedione]"
3,about 70%,"[H]/N=C(\N/C(=N/[H])NCCCCCCNC(=N)NC(=N)Nc1ccc(Cl)cc1)Nc1ccc(Cl)cc1 [chlorhexidine digluconate, 1,1′-hexamethylene bis(5-(p-chlorophenyl)biguanide), reference compound]"
4,about 0.8%,"CC(C)(O)C(Cl)(Cl)Cl [chlorobutanol, 1,1,1-Trichloro-2-methylpropan-2-ol, reference compound]"
